This note sets out measurements from ChEMBL document CHEMBL1201862, “PubChem BioAssay data set” (2004).

What all share (experiment): inhibition of tumour cell growth, NCI panel, 48 h
For test [1], the system named is KM-20L2.
The subject of test [2] is MDA-N.
The test system of test [3] is MDA-MB-231.
In test [4] the test system is T47D.
The test system of test [5] is ACHN.
Test [6] deals with PC-3.
The subject of test [7] is DMS-273.
For test [8], the system named is MDA-MB-435.
The subject of test [9] is 786-0.
Test [10] concerns Hs-578T.
In test [11] the test system is HOP-92.
In test [12] the test system is M19-MEL.
Test [13] deals with SF-268.
Test [14] deals with SK-OV-3.
For test [15], the system named is K562.
Test [16] deals with SR.
The subject of test [17] is SW-620.
Test [18] concerns NCI/ADR-RES.
Test [19] relates to BT-549.
Test [20] concerns UACC-257.

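Method: 48-hour compound exposure of cells in 96-well plates, five concentrations, linear interpolation of endpoints. GI50 is the concentration that inhibits growth by half.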 Calls of active or inactive are those of the source. Cut-off read from the data, not from the text of the source: active = GI50 up to about 1.1 µM and inactive = higher.

Turning to `[N-]=[N+]=CC(=O)CCC(N)C(=O)O` (stereo not given), the GI50 in test [1] is 0.226 µM (active); in test [2] it was 1.32 µM (inactive); in [3], 8.63 µM (inactive); in test [4], 18.7 µM (inactive); in [5] it was 1.06 µM (active); in [6], 0.741 µM (active). Also, the GI50 in test [7] is 1.09 µM (active); in test [8], 1.75 µM (inactive); in [9], 2.14 µM (inactive); in test [10], 62.2 µM (inactive); in test [11] it was 13.8 µM (inactive); in test [12] it was 1.59 µM (inactive). The GI50 in test [13] is 1.25 µM (inactive); in test [14], 1.35 µM (inactive); in test [15], 1.32 µM (inactive); in test [16], 0.809 µM (active); in [17], 2.31 µM (inactive); in test [18], 8.38 µM (inactive). Further, the GI50 was 34.6 µM (inactive) in [19] and 11 µM (inactive) in test [20].

With `CC1=CC(O)C(O)C2(C)C1CC1OC(=O)C(O)C3C(C)C(O)C4(O)OCC13C42` (stereo not given), the GI50 in test [1] is 22.4 µM (inactive); in test [7] it was 153 µM (inactive); in [11], 6.03 µM (inactive); in test [12], 56 µM (inactive); in test [13], 133 µM (inactive); in test [14] it was 49.9 µM (inactive). Further, the GI50 in [15] was 37.2 µM (inactive); in test [17], 24.7 µM (inactive); in [18], 242 µM (inactive); in test [20], 103 µM (inactive).

In the case of `CCNC(=O)C(C)C1CCC2(C)C=CC(=O)C(C)=C2C1O` (stereo not given), the GI50 in [1] was > 100 µM (inactive); in [7] it was > 77.4 µM (inactive); in test [11] it was > 100 µM (inactive); in test [12], > 100 µM (inactive); in test [13], > 100 µM (inactive); in test [14], > 100 µM (inactive). For the same compound, the GI50 in test [15], in test [17], in test [18] and in test [20] was > 100 µM (inactive) throughout.

In the case of `CC(C)(C)[Si](C)(C)OCCCC#CCO`, the GI50 is > 100 µM (inactive) in [1]; > 100 µM (inactive) in [5]; > 100 µM (inactive) in [7]; > 100 µM (inactive) in [13]; > 100 µM (inactive) in [14]; 98.2 µM (inactive) in test [15]. In addition, the GI50 in test [17] and in test [20] was > 100 µM (inactive) throughout.

As to `COc1ccc(NC(=S)NNC(=O)c2nsc3ccccc23)cc1`, the GI50 is 39.1 µM (inactive) in [1]; 43.9 µM (inactive) in test [5]; 26.1 µM (inactive) in [7]; 17.4 µM (inactive) in test [11]; 33 µM (inactive) in [12]; 34.4 µM (inactive) in [13]. Also, the GI50 in test [15] is 30.9 µM (inactive); in test [16] it was 31 µM (inactive); in test [17], 48.4 µM (inactive); in test [20], 36 µM (inactive).

Turning to `Clc1ccc(C2SCc3nc4ccccc4n32)cc1` (stereo not given), the GI50 in [1] was 28.2 µM (inactive); in test [5], 30.1 µM (inactive); in [7], 15.4 µM (inactive); in [11] it was 2.54 µM (inactive); in [12], 19.9 µM (inactive); in test [13] it was 19 µM (inactive). Besides, the GI50 was 25.4 µM (inactive) in test [14], 15.2 µM (inactive) in test [15] and 33.3 µM (inactive) in [17].

Consider `C=C1C(=O)O[C@@H]2/C=C(\C)CC/C=C(\C)CC[C@@]12O`, for which the GI50 in test [2] is 2.25 µM (inactive); in test [3] it was 8.65 µM (inactive); in test [4], 1.41 µM (inactive); in test [5], 1.59 µM (inactive); in test [6], 4.28 µM (inactive); in [8], 2.62 µM (inactive). Also, the GI50 is 1.37 µM (inactive) in [9]; 8.79 µM (inactive) in test [10]; 1.78 µM (inactive) in [11]; 5.37 µM (inactive) in [13]; 15.6 µM (inactive) in test [14]; 2.42 µM (inactive) in test [15]. For the same compound, the GI50 in [16] was 2.42 µM (inactive); in [17], 1.04 µM (active); in test [18], 10.6 µM (inactive); in test [19] it was 1.99 µM (inactive); in test [20] it was 4.86 µM (inactive).

Regarding `COc1cc2c(oc(=O)c3cc4cc([Si](C)(C)C)oc4c(OC)c32)c2cccc(O)c12`, the GI50 in [1], in test [5], in test [7], in [9], in [11] and in test [12] was > 100 µM (inactive) throughout. Also, the GI50 in test [13], in test [14], in test [15], in test [16], in test [17] and in [20] was > 100 µM (inactive) throughout.

Consider `COc1ccc(C[C@H](N)C(=O)N2C[C@@H](CO)C[C@@H](n3cnc4c(N(C)C)ncnc43)C2)cc1`, for which the GI50 in test [1], in [7], in test [9], in test [11], in test [12] and in test [13] was > 100 µM (inactive) in each case. Moreover, the GI50 in [14], in test [15], in test [16], in test [17] and in test [20] was > 100 µM (inactive) throughout.

Take `COc1cc(C=O)cc(O)c1O`: the GI50 in test [1], in test [5], in [7], in [9], in test [12] and in [13] was > 100 µM (inactive) throughout. Also, the GI50 is > 100 µM (inactive) in [14]; > 100 µM (inactive) in test [15]; 57.9 µM (inactive) in test [16]; > 100 µM (inactive) in test [17]; > 100 µM (inactive) in test [20].

`COc1ccc2c(c1)c1c(n2CCN2CCCCC2)-c2cccc(OC)c2CC1`: the GI50 in [2] was 16.2 µM (inactive); in [3], 15.6 µM (inactive); in [4], 16.3 µM (inactive); in test [5] it was 17.5 µM (inactive); in [6] it was 12.7 µM (inactive); in test [8] it was 14.7 µM (inactive). Also, the GI50 in test [9] is 20.2 µM (inactive); in [10], 19.5 µM (inactive); in test [11] it was > 10 µM (inactive); in test [13], 19.7 µM (inactive); in test [14] it was 33.4 µM (inactive); in test [15], 9.04 µM (inactive). The GI50 was 4.9 µM (inactive) in test [16]; 16.7 µM (inactive) in test [17]; 18.7 µM (inactive) in [18]; 13.9 µM (inactive) in test [19]; 18.2 µM (inactive) in test [20].

As to `O=C1OC2CC=CC1C2` (stereo not given), the GI50 in [1], in test [7], in test [11], in [12], in test [13] and in test [14] was > 100 µM (inactive) throughout. For the same compound, the GI50 in test [15], in test [17], in [18] and in [20] was > 100 µM (inactive) each time.

Regarding `CC(C)[C@](O)(C(=O)OCC1CC[N+]2([O-])CC[C@@H](O)C12)[C@H](C)O` (stereo not given in full), the GI50 in [1], in [7], in test [11], in [12], in [13] and in test [14] was > 375 µM (inactive) each time. For the same compound, the GI50 in test [15], in test [17], in [18] and in [20] was > 375 µM (inactive) in each case.

Regarding `CCOC(=O)CN1CCS/C1=N/C#N`, the GI50 in test [1] is > 100 µM (inactive); in test [7], > 100 µM (inactive); in test [11] it was > 60 µM (inactive); in test [12] it was > 100 µM (inactive); in test [13], > 100 µM (inactive); in test [14], > 100 µM (inactive). The GI50 in [15], in [17], in [18] and in [20] was > 100 µM (inactive) in each case.

Turning to `Nc1ncnc2c1nnn2C1OC(CO)C(O)C1O` (stereo not given), the GI50 is 4.2 µM (inactive) in test [1]; 2.62 µM (inactive) in test [7]; 7.14 µM (inactive) in [11]; 8.57 µM (inactive) in [12]; 6.3 µM (inactive) in test [13]; 0.822 µM (active) in test [14]. In addition, the GI50 in test [15] was 1.61 µM (inactive); in test [17], 2.19 µM (inactive); in test [18] it was 8.97 µM (inactive); in [20] it was 8.93 µM (inactive).
